Each block holds one compound with its values, some of them ahead of it.
Columns and labels:
α-enolase (ENO1) [1] = target: T1, α-enolase (ENO1) (Homo sapiens, UniProt P06733); test: SPR; format: binding
α-enolase (ENO1) [2] = target: T1, α-enolase (ENO1); test: PKM1-coupled luminescent Kinase-Glo assay; format: biochemical
α-enolase (ENO1) [3] = target: T2, α-enolase (ENO1) (Homo sapiens, UniProt P06733, K330E); test: SPR; format: binding
α-enolase (ENO1) [4] = target: T2, α-enolase (ENO1); test: PKM1-coupled luminescent Kinase-Glo assay; format: biochemical
GAPDH = GAPDH (Homo sapiens, UniProt P04406); test: NADH absorbance at […] nm; format: biochemical; conditions: activator, allosteric suggested; 1 mM NAD+, 2.88 mM G3P, 20 mM arsenate, pH 8.5
GAPDH, sequence (P04406 2-335): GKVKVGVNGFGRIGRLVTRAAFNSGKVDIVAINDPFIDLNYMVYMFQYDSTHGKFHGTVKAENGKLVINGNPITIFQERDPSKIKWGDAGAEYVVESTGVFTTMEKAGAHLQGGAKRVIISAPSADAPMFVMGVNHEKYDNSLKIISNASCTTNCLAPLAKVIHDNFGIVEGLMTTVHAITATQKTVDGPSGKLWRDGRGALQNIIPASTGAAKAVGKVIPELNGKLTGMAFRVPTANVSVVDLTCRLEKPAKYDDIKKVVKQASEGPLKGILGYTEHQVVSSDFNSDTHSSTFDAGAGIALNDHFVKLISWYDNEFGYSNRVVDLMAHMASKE

PKM2 = PKM2 (Homo sapiens, UniProt P14618); test: SPR; format: binding
PKM2, sequence (P14618 2-531): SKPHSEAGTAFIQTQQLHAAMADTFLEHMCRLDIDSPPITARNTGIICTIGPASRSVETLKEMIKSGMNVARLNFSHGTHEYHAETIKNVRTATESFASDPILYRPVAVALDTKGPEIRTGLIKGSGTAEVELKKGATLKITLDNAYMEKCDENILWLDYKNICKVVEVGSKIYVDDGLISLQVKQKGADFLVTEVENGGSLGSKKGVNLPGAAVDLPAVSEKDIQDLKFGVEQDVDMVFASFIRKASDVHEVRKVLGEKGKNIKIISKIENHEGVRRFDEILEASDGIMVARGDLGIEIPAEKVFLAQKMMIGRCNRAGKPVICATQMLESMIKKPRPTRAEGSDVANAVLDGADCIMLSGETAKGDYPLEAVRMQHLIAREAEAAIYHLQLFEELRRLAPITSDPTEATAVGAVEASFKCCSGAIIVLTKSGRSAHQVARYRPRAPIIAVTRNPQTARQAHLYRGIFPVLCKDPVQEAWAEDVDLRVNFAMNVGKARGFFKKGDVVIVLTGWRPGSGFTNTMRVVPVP

TRIM28 = TRIM28 (Homo sapiens, UniProt Q13263); test: SPR; format: binding
TRIM28, sequence (Q13263 whole entry): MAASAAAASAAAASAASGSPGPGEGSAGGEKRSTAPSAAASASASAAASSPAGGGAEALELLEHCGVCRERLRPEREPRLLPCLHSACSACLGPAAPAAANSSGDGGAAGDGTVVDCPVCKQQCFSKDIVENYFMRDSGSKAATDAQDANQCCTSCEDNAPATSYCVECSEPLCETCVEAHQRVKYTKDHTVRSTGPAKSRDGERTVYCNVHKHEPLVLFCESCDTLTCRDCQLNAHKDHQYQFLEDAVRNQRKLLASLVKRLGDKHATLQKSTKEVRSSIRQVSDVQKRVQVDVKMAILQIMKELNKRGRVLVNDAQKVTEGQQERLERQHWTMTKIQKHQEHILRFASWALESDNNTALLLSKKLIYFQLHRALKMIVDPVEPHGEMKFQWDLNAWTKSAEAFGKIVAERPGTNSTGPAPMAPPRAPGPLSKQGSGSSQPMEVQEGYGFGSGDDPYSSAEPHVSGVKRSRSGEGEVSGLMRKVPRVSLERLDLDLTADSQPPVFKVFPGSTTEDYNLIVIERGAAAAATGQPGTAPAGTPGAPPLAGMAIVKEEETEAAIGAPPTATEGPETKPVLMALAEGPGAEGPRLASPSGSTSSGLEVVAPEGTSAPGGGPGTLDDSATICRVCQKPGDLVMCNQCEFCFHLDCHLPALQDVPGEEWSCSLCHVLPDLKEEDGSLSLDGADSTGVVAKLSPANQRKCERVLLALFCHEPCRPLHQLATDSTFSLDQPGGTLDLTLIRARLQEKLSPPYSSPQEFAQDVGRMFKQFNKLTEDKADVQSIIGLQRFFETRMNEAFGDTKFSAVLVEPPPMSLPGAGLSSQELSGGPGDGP

T1 sequence (P06733 whole entry): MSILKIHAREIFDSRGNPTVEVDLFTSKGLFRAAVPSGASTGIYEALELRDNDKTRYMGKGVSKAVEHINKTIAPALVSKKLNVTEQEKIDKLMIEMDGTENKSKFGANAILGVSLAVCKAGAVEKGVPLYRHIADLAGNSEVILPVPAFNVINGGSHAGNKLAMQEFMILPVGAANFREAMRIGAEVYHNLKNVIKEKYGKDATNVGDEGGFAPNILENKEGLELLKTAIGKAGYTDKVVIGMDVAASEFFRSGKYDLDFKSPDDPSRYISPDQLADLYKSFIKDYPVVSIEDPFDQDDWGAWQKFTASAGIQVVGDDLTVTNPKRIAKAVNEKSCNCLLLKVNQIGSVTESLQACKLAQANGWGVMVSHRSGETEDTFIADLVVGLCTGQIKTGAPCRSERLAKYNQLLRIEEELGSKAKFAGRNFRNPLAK
T2 sequence (P06733 whole entry K330E): as the sequence (P06733 whole entry) above, with K330E counted along it

Kd (α-enolase (ENO1) [1]): 0.0254 µM | IC50 (α-enolase (ENO1) [2]): 113 µM | Kd (α-enolase (ENO1) [3]): 10.3 µM | IC50 (α-enolase (ENO1) [4]): 1170 µM
SMILES: O=CC(O)COP(=O)(O)O (racemic) [G3P]

NADH absorbance at 340 nm (GAPDH): pyruvate can bind to and activate GAPDH
SMILES: CC(=O)C(=O)O [pyruvate]

Kd (PKM2): 0.26 µM
SMILES: O=C(O)[C@H](O)COP(=O)(O)O [3PG]

Kd (TRIM28): 0.0412 µM
SMILES: C[C@H](O)C(=O)O [lactate]
